According to PubChem BioAssay AID463199 (Broad Institute, 2010):
Active and inactive are the calls of the source.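 Rule for the calls: active = AC50, the dose giving half-maximal effect, exceeds a fixed cutoff for a compound that rescues yeast growth under heat; inactive = the rest, inconclusive results apart.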

test system: S. cerevisiae Burl-1 ts mutant growth, BacTiter-Glo, 38.5C 24 h; experiment: growth induction of Burl-1 ts yeast mutant, dose response, counter-screen for SUMOylation pathway inhibitor project, whole organism, S. cerevisiae, luminescence (AID 463199)

Compound | AC50
CSc1ccccc1-c1nc(-c2ccncc2)no1 | > 42 µM (inactive)
CC(C)(C)C(=O)NC1(C(F)(F)F)NC(=O)N(c2ccccc2F)C1=O (stereo not given) | > 42 µM (inactive)
Cc1ccc(C(C(=O)NC2CCCCC2)N(CCC(C)C)C(=O)CNC(=O)c2ccco2)o1 (stereo not given) | > 42 µM (inactive)
CCN(CCn1cccn1)C(=O)C1CCC(=O)N(CCc2cccc(F)c2)C1 (stereo not given) | > 42 µM (inactive)
COc1cc(C)ccc1OCCCOc1ccccc1Br | > 42 µM (inactive)
Cc1ccccc1OCc1nc(-c2ccccc2)no1 | > 42 µM (inactive)
O=C(NNC(=O)c1csc(N2CCOCC2)n1)c1ccc(Cl)nc1 | > 42 µM (inactive)
CSCC[C@H](NC(=O)CC(C)(C)C)c1nc2ccccc2[nH]1 | > 42 µM (inactive)
CC(=O)Nc1nn(C)c2nc3ccc(C)cc3cc12 | > 42 µM (inactive)
O=C(CCN1C(=O)S/C(=C/c2ccccc2)C1=O)Nc1ccc(O)c(C(=O)O)c1 | > 42 µM (inactive)
CCC1CCCCN1C(=O)CSc1nnc(CNC(=O)c2ccco2)o1 (stereo not given) | > 42 µM (inactive)
O=C(CCc1ccccc1)N1CCN(c2ccccc2F)CC1 | > 42 µM (inactive)
CC(NC(=O)c1cnc2n(c1=O)CCS2)c1ccccc1 (stereo not given) | > 42 µM (inactive)
CCN1CSC(=S)N(Cc2ccc(OC)cc2)C1 | 7.78 µM
COc1ccc(C(C)=O)cc1CN(c1ccccc1OC)S(=O)(=O)c1cccs1 | > 42 µM (inactive)
CC1CCCCN1C(=O)C(Cc1ccccc1)N1C(=O)C2CCCCC2C1=O (stereo not given) | > 42 µM (inactive)
c1coc(C2OCC3(CO2)COC(c2ccco2)OC3)c1 (stereo not given) | > 42 µM (inactive)
Cc1ccc(S(=O)(=O)Cc2ccc(C(=O)N3CCN(c4ccccn4)CC3)o2)cc1 | > 42 µM (inactive)
COc1ccc(N2CCN(C3CCCN(Cc4cccc(OC)c4)C3)CC2)cc1 (stereo not given) | > 42 µM (inactive)
O=C(CSc1ncccn1)c1ccccc1Br | > 42 µM (inactive)
COc1ccc([N+](=O)[O-])c2c(=O)ccoc12 | > 42 µM (inactive)
C/C=C/C(=O)OCC(=O)Nc1nc2ccc(C)cc2s1 | > 42 µM (inactive)
CN(C)CCNC(=O)c1c(O)c2c([nH]c1=O)CCCC2 | > 42 µM (inactive)
Cc1c(NC(=O)CN2C(=O)NC(C)(c3ccc(OC(F)F)cc3)C2=O)c(=O)n(-c2ccccc2)n1C (stereo not given) | > 42 µM (inactive)
Cc1nn(CC(=O)Nc2ccccn2)c(C)c1[N+](=O)[O-] | > 42 µM (inactive)

Compound | AC50
COc1cc(NC(=O)c2ccccc2F)c(OC)cc1NC(=O)CN1CCCCC1 | > 42 µM (inactive)
Cc1[nH]oc(=O)c1N=Nc1ccccc1 | > 42 µM (inactive)
CS(=O)(=O)N(CC(=O)NCCSCc1ccccc1)c1ccc2c(c1)OCO2 | > 42 µM (inactive)
NC(=O)C1CCN(C2CC(=O)N(c3ccc(F)c(Cl)c3)C2=O)CC1 (stereo not given) | > 42 µM (inactive)
Cc1nc2c(-c3ccc(F)cc3)cnn2c2c1CCC2 | > 42 µM (inactive)
COc1ccc(CN2CCNC(=O)C2CC(=O)NCc2cn3ccc(C)cc3n2)c(OC)c1 (stereo not given) | > 42 µM (inactive)
CC(C)n1c(CN(C)c2ccccc2)nc2ccccc21 | > 42 µM (inactive)
NC(=O)NC(=O)CSc1nc(C2CCCCC2)n(-c2ccccc2)n1 | > 42 µM (inactive)
N#C/C(=C\c1ccc(O)c(O)c1)C(=O)Nc1ccccc1 | > 42 µM (inactive)
CC12CCC(=O)N1C(C(=O)Nc1ccccc1F)CS2 (stereo not given) | > 42 µM (inactive)
Cc1[nH]c2ccccc2c1/C=N/NC(=O)c1cccc(Br)c1 | > 42 µM (inactive)
Cc1c(Cl)c([N+](=O)[O-])nn1CC(=O)NC12CC3CC(CC(C3)C1)C2 | > 42 µM (inactive)
COc1ccc(-c2c(C)nn3c(C)cc(C)nc23)cc1 | > 42 µM (inactive)
CC(NC(=O)OCc1ccccc1)C(=O)N1CC(O)CC1C(=O)O (stereo not given) | > 21 µM (inactive)
O=C(COC(=O)c1c(F)cccc1F)c1ccc[nH]1 | > 42 µM (inactive)
COc1ccc(N2C(=O)CC(NCc3cccs3)C2=O)cc1 (stereo not given) | > 42 µM (inactive)
O=C(NCCc1c[nH]c2ccccc12)c1cc(S(=O)(=O)N2CCCCC2)ccc1N1CCOCC1 | > 42 µM (inactive)
Cc1nc(NC(=O)CSc2nc(N)cc(N)n2)sc1C | > 42 µM (inactive)
N#Cc1cccc(NC(=O)CSc2n[nH]c(=O)[nH]c2=O)c1 | > 42 µM (inactive)
O=S(=O)(c1ccccc1)N1CCN(c2nc3ccccc3s2)CC1 | > 42 µM (inactive)
CCOc1ccccc1/C=N\Nc1cnn(Cc2ccccc2)c(=O)c1Cl | > 42 µM (inactive)
Clc1cc(Br)ccc1OCCOCCN1CCOCC1 | > 42 µM (inactive)
O=C(Cc1cccs1)Nc1nnc(-c2ccncc2)s1 | > 42 µM (inactive)
CCN(CC(=O)NCc1ccc(Cl)cc1)C(=O)/C=C/c1ccc(C#N)cc1 | > 42 µM (inactive)
O=c1[nH]c(=O)n(C2CCCO2)cc1Br (stereo not given) | > 42 µM (inactive)
